We go through eleven compounds from patent US8791123B2, “Substituted pyrazolo[1,5-a]pyrimidine compounds as Trk kinase inhibitors” (Array Biopharma, Inc., priority 2009, dated 2014).

In one assay the target is Human Jak2 kinase domain (Homo sapiens (Human), UniProt O60674). Nature of the assay: Jak2 Inhibition Assay (Omnia kinase assay). It is filed as biochemical. As to conditions: Table 1; 500 μM ATP; >1000 nM when >50% inhibition not observed at 1000 nM; read-out: Jak2 Enzyme IC50.
Assay [1] concerns the target TrkA (histidine-tagged recombinant human TrkA, cytoplasmic domain) (Homo sapiens (Human), UniProt P04629). Briefly: TrkA ELISA Assay. The settings on record: Table 1; ELISA, 500 μM ATP; read-out: TrkA Enzyme IC50. It is filed as biochemical. The procedure, abridged:
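ELISA read-out: a peroxidase-linked anti-phosphotyrosine antibody (PY20, 0.2 μg/mL) with TMB substrate, absorbance at 450 nm after acid stop. The plate-bound substrate was poly(Glu,Ala,Tyr; 6:3:1) at 0.025 mg/mL, phosphorylated by the recombinant His-tagged human TrkA cytoplasmic domain in the presence of inhibitors.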
(In an ELISA, binding on a coated surface is turned into a signal by an enzyme label.)

SMILES strings stand for the structures.

Sequence of TrkA (histidine-tagged recombinant human TrkA, cytoplasmic domain) (P04629 440-796): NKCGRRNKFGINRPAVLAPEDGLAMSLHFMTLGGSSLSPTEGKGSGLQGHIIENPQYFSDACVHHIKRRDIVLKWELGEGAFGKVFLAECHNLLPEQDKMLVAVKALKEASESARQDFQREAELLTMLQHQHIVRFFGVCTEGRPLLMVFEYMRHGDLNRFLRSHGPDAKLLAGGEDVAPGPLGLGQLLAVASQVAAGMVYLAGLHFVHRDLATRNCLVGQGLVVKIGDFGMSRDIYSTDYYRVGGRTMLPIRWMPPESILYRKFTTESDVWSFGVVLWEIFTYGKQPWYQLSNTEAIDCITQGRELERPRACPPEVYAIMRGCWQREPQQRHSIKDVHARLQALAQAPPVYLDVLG
Sequence of Human Jak2 kinase domain (O60674 808-1132): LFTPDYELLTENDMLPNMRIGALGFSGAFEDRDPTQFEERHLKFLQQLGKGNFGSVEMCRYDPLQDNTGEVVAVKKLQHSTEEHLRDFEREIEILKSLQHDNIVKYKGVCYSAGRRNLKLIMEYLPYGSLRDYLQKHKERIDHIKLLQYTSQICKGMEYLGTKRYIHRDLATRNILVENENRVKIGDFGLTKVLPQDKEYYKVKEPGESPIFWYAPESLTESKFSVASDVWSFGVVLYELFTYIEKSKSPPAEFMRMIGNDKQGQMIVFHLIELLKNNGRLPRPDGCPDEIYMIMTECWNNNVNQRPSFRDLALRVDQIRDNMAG

Broadly, the IC50 is the concentration that inhibits the measured activity by half. `COCCNC(=O)c1cnn2ccc(N3CCC[C@@H]3c3cc(F)ccc3F)nc12` [Example 172, 5-((R)-2-(2,5-difluorophenyl)pyrrolidin-1-yl)-N-(2-methoxyethyl)pyrazolo[1,5-a]pyrimidine-3-carboxamide]: the results for the IC50 (on Human Jak2 kinase domain; in assay [1]) were above 1000 nM and 2.5 nM, respectively.
Take `NC(=O)c1cnn2ccc(N3CCC[C@@H]3c3cc(F)ccc3OCCN3CCOCC3)nc12` [Example 86, (R)-5-(2-(5-fluoro-2-(2-morpholinoethoxy)phenyl)pyrrolidin-1-yl)pyrazolo[1,5-a]pyrimidine-3-carboxamide]: the results for the IC50 (on Human Jak2 kinase domain; in assay [1]) were above 1000 nM and 26.7 nM, respectively.
`CC(C)(C)NC(=O)c1cnn2ccc(N3CCC[C@@H]3c3cccc(F)c3)nc12` [Example 36, (R)—N-tert-butyl-5-(2-(3-fluorophenyl)pyrrolidin-1-yl)pyrazolo[1,5-a]pyrimidine-3-carboxamide]: the IC50 on Human Jak2 kinase domain was above 1000 nM; in assay [1], 2.1 nM.
`Cn1cc(F)cc([C@H]2CCCN2c2ccn3ncc(C(=O)NC(C)(C)C)c3n2)c1=O` [Example 226, (R)—N-tert-butyl-5-(2-(5-fluoro-1-methyl-2-oxo-1,2-dihydropyridin-3-yl)pyrrolidin-1-yl)pyrazolo[1,5-a]pyrimidine-3-carboxamide]: the IC50 on Human Jak2 kinase domain was above 1000 nM; in assay [1], 10.5 nM.
For `COCC(C)NC(=O)c1cnn2ccc(N3CCCC3c3cncc(F)c3)nc12` [Example 118, 5-((R)-2-(5-fluoropyridin-3-yl)pyrrolidin-1-yl)-N-(1-methoxypropan-2-yl)pyrazolo[1,5-a]pyrimidine-3-carboxamide] the same measures were above 1000 nM and 22.5 nM.
In the case of `Cc1ncc(F)cc1[C@H]1CCCN1c1ccn2ncc(C(=O)N[C@H]3CN4CCC3CC4)c2n1` [Example 198, 5-((R)-2-(5-fluoro-2-methylpyridin-3-yl)pyrrolidin-1-yl)-N-((R)-quinuclidin-3-yl)pyrazolo[1,5-a]pyrimidine-3-carboxamide], the IC50 on Human Jak2 kinase domain is above 1000 nM; in assay [1] it was 243 nM.
Consider `O=C(NOC[C@@H](O)CO)c1cnn2ccc(N3CCC[C@@H]3c3cc(F)ccc3F)nc12` [Example 88, 5-((R)-2-(2,5-difluorophenyl)pyrrolidin-1-yl)-N—((S)-2,3-dihydroxypropoxy)pyrazolo[1,5-a]pyrimidine-3-carboxamide], for which the half-maximal inhibitory concentration (IC50) on Human Jak2 kinase domain was above 1000 nM; in assay [1] it was 6.13 nM.
As to `Cc1ncc(F)cc1[C@H]1CCCN1c1ccn2ncc(C(=O)NC[C@@H](C)O)c2n1` [Example 189, (R)-5-(2-(5-fluoro-2-methylpyridin-3-yl)pyrrolidin-1-yl)-N-((R)-2-hydroxypropyl)pyrazolo[1,5-a]pyrimidine-3-carboxamide], the figures for the IC50 (at Human Jak2 kinase domain; in assay [1]) were above 1000 nM and 76.4 nM, respectively.
For `O=C(c1cnn2ccc(N3CCC[C@@H]3c3cncc(F)c3)nc12)N1CCC1` [Example 126, (R)-azetidin-1-yl(5-(2-(5-fluoropyridin-3-yl)pyrrolidin-1-yl)pyrazolo[1,5-a]pyrimidin-3-yl)methanone] the same measures were above 1000 nM and 218 nM.
Consider `Cn1ccc(NC(=O)c2cnn3ccc(N4CCC[C@@H]4c4cc(F)ccc4F)nc23)n1` [Example 6, (R)-5-(2-(2,5-difluorophenyl)pyrrolidin-1-yl)-N-(1-methyl-1H-pyrazol-3-yl)pyrazolo[1,5-a]pyrimidine-3-carboxamide], for which the IC50 is above 1000 nM on Human Jak2 kinase domain and 1.55 nM in assay [1].
On to `O=C(NC1CC1)c1cnn2ccc(N3CCC[C@@H]3c3cc(F)ccc3OCCN3CCOCC3)nc12` [Example 87, (R)—N-cyclopropyl-5-(2-(5-fluoro-2-(2-morpholinoethoxy)phenyl)pyrrolidin-1-yl)pyrazolo[1,5-a]pyrimidine-3-carboxamide], for which the results for the IC50 (on Human Jak2 kinase domain; in assay [1]) were above 1000 nM and 16.1 nM, respectively.
